Laboratory results as given in ChEMBL document CHEMBL5247652, “Discovery of Novel Substrate-Competitive Lysine Methyltransferase G9a Inhibitors as Anticancer Agents” (J Med Chem, 2023).
Values after ≈ are worked out from the molar mass of the structure shown.

How the values were obtained:
[1] = target: T1, Histone-lysine N-methyltransferase EHMT2 (Homo sapiens, UniProt Q96KQ7); test: Inhibition of N-terminal GST-tagged human recombinant G9a (785 to 1210 residues) expressed in baculovirus infected Sf9 cells incubated for 1 hr by AlphaLISA analysis
T1 sequence (Q96KQ7 whole entry): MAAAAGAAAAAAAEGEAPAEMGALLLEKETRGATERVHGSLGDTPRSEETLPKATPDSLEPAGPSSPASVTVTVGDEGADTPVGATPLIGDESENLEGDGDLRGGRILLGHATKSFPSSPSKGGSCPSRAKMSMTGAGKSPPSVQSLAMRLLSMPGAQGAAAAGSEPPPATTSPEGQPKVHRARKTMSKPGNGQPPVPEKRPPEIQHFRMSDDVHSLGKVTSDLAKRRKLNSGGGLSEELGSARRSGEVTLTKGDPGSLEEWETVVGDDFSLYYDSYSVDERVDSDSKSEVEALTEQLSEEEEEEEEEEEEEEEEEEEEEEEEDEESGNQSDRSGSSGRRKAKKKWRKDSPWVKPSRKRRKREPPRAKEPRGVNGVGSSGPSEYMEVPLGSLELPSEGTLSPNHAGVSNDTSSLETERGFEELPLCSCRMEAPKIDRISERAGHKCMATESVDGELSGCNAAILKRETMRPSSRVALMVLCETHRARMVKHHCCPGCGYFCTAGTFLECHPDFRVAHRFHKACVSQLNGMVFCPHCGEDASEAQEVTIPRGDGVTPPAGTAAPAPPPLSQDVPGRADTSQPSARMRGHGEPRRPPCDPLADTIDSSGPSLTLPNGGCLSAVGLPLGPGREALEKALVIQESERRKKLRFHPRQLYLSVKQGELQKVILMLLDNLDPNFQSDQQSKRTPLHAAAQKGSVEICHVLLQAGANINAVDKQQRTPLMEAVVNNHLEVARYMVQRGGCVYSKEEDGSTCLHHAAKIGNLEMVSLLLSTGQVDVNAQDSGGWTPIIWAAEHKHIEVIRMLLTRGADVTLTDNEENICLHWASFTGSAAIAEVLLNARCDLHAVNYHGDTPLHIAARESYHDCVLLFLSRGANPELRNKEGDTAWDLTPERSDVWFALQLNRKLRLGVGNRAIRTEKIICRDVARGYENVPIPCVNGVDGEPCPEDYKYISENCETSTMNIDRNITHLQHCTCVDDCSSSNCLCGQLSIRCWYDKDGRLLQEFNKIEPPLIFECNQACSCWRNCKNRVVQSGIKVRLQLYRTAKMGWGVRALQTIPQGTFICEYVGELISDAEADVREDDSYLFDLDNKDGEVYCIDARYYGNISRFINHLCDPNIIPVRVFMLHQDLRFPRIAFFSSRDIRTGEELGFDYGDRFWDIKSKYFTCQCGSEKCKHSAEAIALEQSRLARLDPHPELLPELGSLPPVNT

[2] = Aqueous solubility of compound at pH 7.4 measured for 1 hr by UV-plate reader analysis; assay type: physicochemical; conditions: buffer
[3] = Microsomal stability in human liver microsomes assessed as parent compound remaining after 30 mins in presence of NADPH by LC -MS/MS analysis; assay type: ADME, Microsome; conditions: read-out: Stability
[4] = Microsomal stability in mouse liver microsomes assessed as parent compound remaining after 30 mins in presence of NADPH by LC -MS/MS analysis; assay type: ADME, Microsome; conditions: read-out: Stability
[5] = Permeability of compound by PAMPA assay; assay type: ADME; conditions: read-out: permeability

Structure (SMILES)	IC50 [1] [nM]	solubility at 1 h [2] [µM]	remaining at 0.5 h [3] [%]	remaining at 0.5 h [4] [%]	Papp [5] [×10⁻⁶ cm/s]
CCCC[C@@H](NC(=O)c1[nH]c2c(c1C)C(=O)CC(C)(C)C2)C(=O)Nc1ccccc1	8640				
CCCC[C@H](NC(=O)c1[nH]c2c(c1C)C(=O)CC1(CCOCC1)C2)C(=O)Nc1ccccc1	2080				
Cc1c(C(=O)N[C@@H](CCN(C)C)c2nc3ccccc3[nH]2)[nH]c2c1C(=O)CC(C)(C)C2	17000				
CCCC[C@H](NC(=O)c1[nH]c2c(c1C(C)(C)C)C(=O)CC(C)(C)C2)C(=O)Nc1ccccc1	> 50000				
CCCC[C@H](NC(=O)c1[nH]c2c(c1C(C)C)C(=O)CC(C)(C)C2)C(=O)Nc1ccccc1	72.4				
CCCC[C@H](NC(=O)c1[nH]c2c(c1C)C(=O)CC(C)(C)C2)C(=O)Nc1ccccc1	355				
CCCC[C@H](NC(=O)c1[nH]c2c(c1CC)C(=O)CC(C)(C)C2)C(=O)Nc1ccccc1	178				
CCCC[C@H](NC(=O)c1[nH]c2c(c1C)C(=O)CC1(CCCCC1)C2)C(=O)Nc1ccccc1	1470				
CCCC[C@H](NC(=O)c1[nH]c2c(c1C)C(=O)CC(C)(C)C2)c1nc2ccccc2[nH]1	1900				
Cc1c(C(=O)N[C@@H](CCCN(C)C)c2nc3ccccc3[nH]2)[nH]c2c1C(=O)CC(C)(C)C2	> 50000				
CSCC[C@H](NC(=O)c1[nH]c2c(c1C)C(=O)CC(C)(C)C2)c1nc2ccccc2[nH]1	1430				
CCCC[C@H](NC(=O)c1[nH]c2c(c1CCC)C(=O)CC(C)(C)C2)C(=O)Nc1ccccc1	306				
CCCC[C@@H](NC(=O)c1[nH]c2c(c1C)C(=O)CC(C)(C)C2)c1nc2ccccc2[nH]1	4500				
CCCCC(NC(=O)c1[nH]c2c(c1C)C(=O)CC(C)(C)C2)C(=O)Nc1ccc(C)cc1 (racemic)	491	1.8 (≈ 0.762 µg/mL)			
Cc1c(C(=O)NC(CCC2CCC2)C(=O)Nc2ccccc2)[nH]c2c1C(=O)CC(C)(C)C2 (racemic)	636				
CCCCC(NC(=O)c1[nH]c2c(c1C)C(=O)CC(C)(C)C2)C(=O)Nc1cccc(Cl)c1 (racemic)	1540	4.5 (≈ 2 µg/mL)			
CCCCC(NC(=O)c1[nH]c2c(c1C)C(=O)CCC2)C(=O)Nc1ccccc1 (racemic)	20900				
CCCCC(NC(=O)c1[nH]c2c(c1C)C(=O)CC(C)(C)C2)C(=O)Nc1ccc(C(=O)O)cc1 (racemic)	1800				
CCCCC(NC(=O)c1[nH]c2c(c1C)C(=O)CC(C)(C)C2)C(=O)Nc1ccccc1Cl (racemic)	1080	13.9 (≈ 6.17 µg/mL)	30	0.1	7.16
CCCCNC(=O)C(CCCC)NC(=O)c1[nH]c2c(c1C)C(=O)CC(C)(C)C2 (racemic)	1090	11 (≈ 4.28 µg/mL)	30.6	0.8	8.73
CCCCC(NC(=O)c1[nH]c2c(c1C)C(=O)CC(C)(C)C2)C(=O)Nc1ccncc1 (racemic)	1140	133 (≈ 54.6 µg/mL)	15.7	59.4	3.63
CCCCC(NC(=O)c1[nH]c2c(c1C)C(=O)CC(C)(C)C2)C(=O)Nc1ccc(F)cc1 (racemic)	909	16.5 (≈ 7.05 µg/mL)	83.8	37.5	23.5
CCCCC(NC(=O)c1[nH]c2c(c1C)C(=O)CC(C)(C)C2)C(=O)Nc1ccc(C(N)=O)cc1 (racemic)	526	104 (≈ 47.1 µg/mL)	90.9	92.2	0.62
CCCCC(NC(=O)c1[nH]c2c(c1C)C(=O)CC(C)(C)C2)C(=O)Nc1cccc(C#N)c1 (racemic)	685	14.5 (≈ 6.3 µg/mL)	79.1	6.4	7.78
Cc1c(C(=O)NC(CCc2ccccc2)C(=O)Nc2ccccc2)[nH]c2c1C(=O)CC(C)(C)C2 (racemic)	> 5000				

Structure (SMILES)	IC50 [1] [nM]	solubility at 1 h [2] [µM]	remaining at 0.5 h [3] [%]	remaining at 0.5 h [4] [%]	Papp [5] [×10⁻⁶ cm/s]
CCCCC(NC(=O)c1[nH]c2c(c1C)C(=O)CC(C)(C)C2)C(=O)Nc1ccccc1 (racemic)		20.1 (≈ 8.23 µg/mL)	77.8	19.9	12.5
CCCCC(NC(=O)c1[nH]c2c(c1C)C(=O)CC(C)(C)C2)C(=O)Nc1ccc(S(C)(=O)=O)cc1 (racemic)	2960	43.6 (≈ 21.3 µg/mL)			1.39
CCCC(NC(=O)c1[nH]c2c(c1C)C(=O)CC(C)(C)C2)C(=O)Nc1ccccc1 (racemic)	4040				
Cc1c(C(=O)NC(CCCCN)C(=O)Nc2ccccc2)[nH]c2c1C(=O)CC(C)(C)C2 (racemic)	27600				
CCCCC(NC(=O)c1[nH]c2c(c1C)C(=O)CC(C)(C)C2)C(=O)Nc1ccc(Cl)cc1 (racemic)	1520	5.1 (≈ 2.26 µg/mL)			
CCCCC(NC(=O)c1[nH]c2c(c1C)C(=O)CC(C)(C)C2)C(=O)N(C)c1ccccc1 (racemic)	> 50000	4.9 (≈ 2.08 µg/mL)			
CCCCC(NC(=O)c1[nH]c2c(c1C)C(=O)CC(C)(C)C2)C(=O)Nc1cccc(OC)c1 (racemic)	1210	3 (≈ 1.32 µg/mL)			
CCCCC(NC(=O)c1[nH]c2c(c1C)C(=O)CC(C)(C)C2)C(=O)Nc1ccccc1OC (racemic)	802	7.2 (≈ 3.16 µg/mL)	11.8	1.7	49.4
CCCCC(NC(=O)c1[nH]c2c(c1C)C(=O)CC(C)(C)C2)C(=O)Nc1ccc(C#N)cc1 (racemic)	446	12.9 (≈ 5.61 µg/mL)	89.5	63.9	3.68
Cc1c(C(=O)NC(CCC2(C)CC2)C(=O)Nc2ccccc2)[nH]c2c1C(=O)CC(C)(C)C2 (racemic)	1360				
CCCCC(NC(=O)c1[nH]c2c(c1C)C(=O)CC(C)(C)C2)C(=O)Nc1ccccn1 (racemic)	4260	62.1 (≈ 25.5 µg/mL)	68.8	25.1	11.2
CCCCCC(NC(=O)c1[nH]c2c(c1C)C(=O)CC(C)(C)C2)C(=O)Nc1ccccc1 (racemic)	> 50000				
Cc1c(C(=O)NC(CCC(C)C)C(=O)Nc2ccccc2)[nH]c2c1C(=O)CC(C)(C)C2 (racemic)	291				
Cc1c(C(=O)NC(CC2CC2)C(=O)Nc2ccccc2)[nH]c2c1C(=O)CC(C)(C)C2 (racemic)	1160				
CCCCC(NC(=O)c1c(C)c2c(n1C)CC(C)(C)CC2=O)C(=O)Nc1ccccc1 (racemic)	> 50000				
CCCCC(NC(=O)c1[nH]c2c(c1C)C(=O)CC(C)(C)C2)C(=O)Nc1ccc(OC)cc1 (racemic)	1810	5.9 (≈ 2.59 µg/mL)			
CSCCC(NC(=O)c1[nH]c2c(c1C)C(=O)CC(C)(C)C2)c1nc2ccccc2[nH]1 (racemic)	5320				
CCCCC(NC(=O)c1[nH]c2c(c1C)C(=O)CC(C)(C)C2)C(=O)Nc1cccnc1 (racemic)	1810	143 (≈ 58.7 µg/mL)	32.4	44.7	6.95
CCCCC(NC(=O)c1[nH]c2c(c1C)C(=O)CC(C)(C)C2)C(=O)Nc1ccccc1C#N (racemic)	1570	15.5 (≈ 6.74 µg/mL)	40.8	5.5	7.85
CCCCC(NC(=O)c1[nH]c2c(c1C)C(=O)CC(C)(C)C2)C(=O)NC1CCCCC1 (racemic)	925	15 (≈ 6.23 µg/mL)	1.2	0	4.15
Cc1c(C(=O)NC(COC2CC2)C(=O)Nc2ccccc2)[nH]c2c1C(=O)CC(C)(C)C2 (racemic)	1600				
Cc1c(C(=O)NC(CCCN)C(=O)Nc2ccccc2)[nH]c2c1C(=O)CC(C)(C)C2 (racemic)	12300				
CCCCC(NC(=O)c1oc2c(c1C)C(=O)CC(C)(C)C2)C(=O)Nc1ccccc1 (racemic)	> 50000				
CCCCC(NC(=O)c1[nH]c2c(c1C)CCC(C)(C)C2)C(=O)Nc1ccccc1 (racemic)	> 50000				
CC(C)NCC(O)COc1cccc2ccccc12 (centres undefined) [PROPRANOLOL]					19.4
